Like-named read-outs stand apart in the source and are kept apart here.
What was measured:
in vivo [1] = conditions: mouse
tetrabenazine = experiment: Tetrabenazine antagonistic effect, oral administration; type: in vivo; conditions: for ED50: Mus musculus, read-out: Tetrabenazine antagonism, ED50
Method: (§1) The tetrabenazine-reserpine antagonistic effect was investigated on mice in groups of ten animals each, at oral administration. The inhibition or suspension of the effect of the observed maximum dose was recorded, and the ED50 values were calculated on the basis of the dose vs. effect curves.

reserpine = experiment: Reserpine antagonistic effect, oral administration; type: in vivo; conditions: for ED50: Mus musculus, mice, oral administration, read-out: Reserpine antagonism ED50
Method: as §1

ischiadic nerve of rats = experiment: Local analgesic effect (method of Truant and d'Amato), motor paralysis and its duration; type: in vivo; conditions: for Duration, minutes (o.5%): 0.5 % concentration; for Duration, minutes (o.5%) / Duration, minutes (1.0%): duration of local analgesic effect (motor paralysis); for Duration, minutes (1.0%): 1.0 % concentration; for Relative efficiency: local analgesic effect, referred to Lidocaine
From the text: The local analgesic effect was investigated on the ischiadic nerve of rats by means of the method of Truant and d'Amato (Truant, A.P. and Wiedling, S.: Acta Chirurg. Scand. 116, 351 /1958/). Lidocaine served as reference substance. […]

in vivo [2] = experiment: in vivo
isolated rat-ileum = experiment: Spasmolytic effect on non-striated muscles in isolated rat-ileum (method of Brock et al.); conditions: related to papaverine
Method: The spasmolytic effect on non-striated muscles was determined in isolated rat-ileum by the method of Brock et al. (Brock, N., Geks, J. and Lorenz, D.: Arch. Exper. Path. u. Pharmacol. 215, 492 /1952/), applying papaverine as reference substance. In order to characterize the efficiency of an individual compound, the efficiency related to that of papaverine and the LD50 values observed on oral administration are shown in Table II.

nicotine lethality = experiment: Inhibition of nicotine lethality (method of Stone), oral administration; type: in vivo, mice; conditions: for Therapeutic index: LD50/ED50; for ED50: Mus musculus
[3] = mice, oral administration, Table IV
[4] = inhibition of nicotine lethality
[5] = inhibition of nicotine lethality, mice, oral administration, read-out: ED50
[6] = mice, oral administration, Table III
[7] = oral administration, Table II, read-out: LD50 p.o.

Compound	ED50 (tetrabenazine; po)	ED50 (reserpine)	Duration, minutes (o.5%) (ischiadic nerve of rats)	Duration, minutes (1.0%) (ischiadic nerve of rats)	Relative efficiency (ischiadic nerve of rats)	LD50 (in vivo [2]; po)	further results
CN(C)CCC=C1c2ccccc2CCc2ccccc21 [Amitriptylin, reference compound]	13 mg/kg	65 mg/kg					LD50 (in vivo [1]; [3]): 225 mg/kg; Therapeutic index (tetrabenazine; tetrabenazine antagonism): 17.3; Therapeutic index (reserpine; reserpine antagonism): 3.5
CN(C)CCCON=C1CCCCC1=Cc1ccccc1 [Example 1, 2-Benzal-1-(3'-dimethylaminopropoxyimino)-cyclohexane]	80 mg/kg	27 mg/kg	99 min	115 min	1.7	560 mg/kg	LD50 (in vivo [1]; po): 560 mg/kg; Therapeutic index (tetrabenazine; mouse, in vivo, po): 7.0; Therapeutic index (reserpine; mouse, in vivo, po): 20.7
CCN(CC)CCON=C1CCCCC1=Cc1ccccc1 [Example 2, 2-Benzal-1-(2'-diethylaminoethoxyimino)-cyclohexane]			72 min	111 min	3.2	430 mg/kg	Relative efficiency (isolated rat-ileum): 1.73
NCCON=C1CCCCC1=Cc1ccccc1 [Example 4, 1-(2'-Aminoethoxyimino)-2-benzalcyclohexane]							Therapeutic index (nicotine lethality; [4]): 36.4; ED50 (nicotine lethality; [5]): 11 mg/kg; LD50 (in vivo [1]; [6]): 400 mg/kg
CN(C)CCON=C1CCCC1=Cc1ccccc1 [Example 5, 2-Benzal-1-(2'-dimethylaminoethoxyimino)-cyclopentane]			68 min	96 min	1.8	450 mg/kg	
CCN(CC)CCON=C1CCCC1=Cc1ccccc1 [Example 7, 2-Benzal-1-(2'-diethylaminoethoxyimino)-cyclopentane]			94 min	127 min	1.8	210 mg/kg	
CC(C)N(CCON=C1CCCC1=Cc1ccccc1)C(C)C [Example 8, 2-Benzal-1-(2'-diisopropylaminoethoxyimino)-cyclopentane]			66 min	129 min	1.1	450 mg/kg	
CN(C)CCCON=C1CCCCCC1=Cc1ccccc1 [Example 10, 2-Benzal-1-(3'-dimethylaminopropoxyimino)-cycloheptane]							LD50 (in vivo [2]; [7]): 550 mg/kg; Relative efficiency (isolated rat-ileum): 2.42
CC(C)N(CCON=C1CCCCCC1=Cc1ccccc1)C(C)C [Example 11, 2-Benzal-1-(2'-diisopropylaminoethoxyimino)-cycloheptane]							LD50 (in vivo [2]; [7]): 325 mg/kg; Relative efficiency (isolated rat-ileum): 3.01
CN(C)CCCON=C1CCCCCC1=Cc1ccc(Cl)cc1 [Example 12, 1-(3'-Dimethylaminopropoxyimino)-2-(p-chlorobenzal)-cycloheptane]							Therapeutic index (nicotine lethality; [4]): 36.3; ED50 (nicotine lethality; [5]): 40 mg/kg; LD50 (in vivo [1]; [6]): 1450 mg/kg
COc1ccc(C=C2CCCCCC2=NOCCCN(C)C)cc1 [Example 13, 1-(3'-Dimethylaminopropoxyimino)-2-(p-methoxybenzal)-cycloheptane]	70 mg/kg	80 mg/kg					LD50 (in vivo [2]; [7]): 1000 mg/kg; Relative efficiency (isolated rat-ileum): 1.96; LD50 (in vivo [1]; [3]): 1000 mg/kg; Therapeutic index (tetrabenazine; tetrabenazine antagonism): 14.3; Therapeutic index (reserpine; reserpine antagonism): 12.5
COc1ccccc1C=C1CCCCC1=NOCCCN(C)C [Example 15, 1-(3'-Dimethylaminopropoxyimino)-2-(o-methoxybenzal)-cyclohexane]			92 min	160 min	1.7	880 mg/kg	
COc1ccccc1C=C1CCCCC1=NOCC(C)CN(C)C (stereo not drawn) [Example 18, 1-(2'-Methyl-3'-dimethylaminopropoxyimino)-2-(o-methoxybenzal)-cyclohexane]							LD50 (in vivo [2]; [7]): 650 mg/kg; Relative efficiency (isolated rat-ileum): 2.43
CN(C)CCCON=C1CCCCC1=Cc1ccc(Cl)cc1 [Example 19, 1-(Dimethylaminopropoxyimino)-2-(p-chlorobenzal)-cyclohexane]	34 mg/kg	> 180 mg/kg					LD50 (in vivo [1]; [3]): 900 mg/kg; Therapeutic index (tetrabenazine; tetrabenazine antagonism): 26.5; Therapeutic index (reserpine; reserpine antagonism): 5.0
CN(C)CCCON=C1CCCCC1=Cc1ccccc1Cl [Example 21, 1-(Dimethylaminopropoxyimino)-2-(o-chlorobenzal)-cyclohexane]	22 mg/kg	> 100 mg/kg					LD50 (in vivo [1]; [3]): 1500 mg/kg; Therapeutic index (tetrabenazine; tetrabenazine antagonism): 68.2; Therapeutic index (reserpine; reserpine antagonism): 15.0
CN(C)CCON=C1CCCC1=Cc1ccccc1 [Example 27, 2-Benzal-1-(2'-dimethylaminoethoxyimino)-cyclopentane]	120 mg/kg	18 mg/kg					Therapeutic index (nicotine lethality; [4]): 12.8; ED50 (nicotine lethality; po): 47 mg/kg; LD50 (in vivo [1]; [3]): 600 mg/kg; Therapeutic index (tetrabenazine; tetrabenazine antagonism): 5.0; Therapeutic index (reserpine; reserpine antagonism): 33.0
CCN(CC)CC(=O)Nc1c(C)cccc1C [Lidocaine, reference compound]			28 min	52 min			
COc1ccc(Cc2nccc3cc(OC)c(OC)cc23)cc1OC [Papaverine, reference compound]							LD50 (in vivo [2]; [7]): 367 mg/kg
OC(CCN1CCCCC1)(c1ccccc1)C1CCCCC1 (stereo not drawn) [Trihexyphenidyl (Artane), Trihexyphenidyl, reference compound]							ED50 (nicotine lethality; [5]): 40 mg/kg

— patent publication US4077999A, “Novel oxime ethers” (Egyt Gyogyszervegyeszeti Gyar, priority 1976, dated 1978)
